“And” between values parts separate entries of the source, which are not always exact repeats. Equal entries are not always repeated.
Test system: 323965-272-R-J2-PDC complex spheroid viability
Assay: Anticancer human tumor 323965-272-R-J2-PDC patient-derived pancreatic carcinoma cell line growth inhibition [CLK]
Details: for viability, T/C: stronger effect = lower value
Outline: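 Patient-derived tumor cells grown as complex spheroids with HUVEC endothelial cells and mesenchymal stem cells, treated with drug combinations. Concentrations descend in half-log steps from near clinical Cmax, or from 10 microM if Cmax unknown.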

[1] = curve of first compound, second compound 0.0316 µM
[2] = curve of first compound, second compound 0.1 µM
[3] = curve of first compound, second compound 0.316 µM
[4] = curve of first compound, second compound 1 µM
[5] = curve of first compound, second compound 3.16 µM
[6] = curve of first compound, second compound 10 µM
[7] = second compound 0.0316 µM, first compound 0.0316 µM
[8] = second compound 0.0316 µM, first compound 0.1 µM
[9] = second compound 0.0316 µM, first compound 0.316 µM
[10] = second compound 0.0316 µM, first compound 1 µM
[11] = second compound 0.0316 µM, first compound 3.16 µM
[12] = second compound 0.0316 µM, first compound 10 µM
[13] = second compound 0.1 µM, first compound 0.0316 µM
[14] = second compound 0.1 µM, first compound 0.1 µM
[15] = second compound 0.1 µM, first compound 0.316 µM
[16] = second compound 0.1 µM, first compound 1 µM
[17] = second compound 0.1 µM, first compound 3.16 µM
[18] = second compound 0.1 µM, first compound 10 µM
[19] = second compound 0.316 µM, first compound 0.0316 µM
[20] = second compound 0.316 µM, first compound 0.1 µM
[21] = second compound 0.316 µM, first compound 0.316 µM
[22] = second compound 0.316 µM, first compound 1 µM
[23] = second compound 0.316 µM, first compound 3.16 µM
[24] = second compound 0.316 µM, first compound 10 µM
[25] = second compound 1 µM, first compound 0.0316 µM
[26] = second compound 1 µM, first compound 0.1 µM
[27] = second compound 1 µM, first compound 0.316 µM
[28] = second compound 1 µM, first compound 1 µM
[29] = second compound 1 µM, first compound 3.16 µM
[30] = second compound 1 µM, first compound 10 µM
[31] = second compound 3.16 µM, first compound 0.0316 µM
[32] = second compound 3.16 µM, first compound 0.1 µM
[33] = second compound 3.16 µM, first compound 0.316 µM
[34] = second compound 3.16 µM, first compound 1 µM
[35] = second compound 3.16 µM, first compound 3.16 µM
[36] = second compound 3.16 µM, first compound 10 µM
[37] = second compound 10 µM, first compound 0.0316 µM
[38] = second compound 10 µM, first compound 0.1 µM
[39] = second compound 10 µM, first compound 0.316 µM
[40] = second compound 10 µM, first compound 1 µM
[41] = second compound 10 µM, first compound 3.16 µM
[42] = second compound 10 µM, first compound 10 µM
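Also: spheroids exposed to agents for seven days before readout.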
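For viability, T/C in this document: percent of DMSO vehicle control wells so 100% = untreated growth.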

SMILES: CC(C)CC(NC(=O)C(Cc1ccccc1)NC(=O)c1cnccn1)B(O)O (stereo not drawn) + CN1CCN(c2cc(C(=O)Nc3cc4cc(-c5cnn(C)c5)ccc4cn3)ccn2)CC1
- IC50 [1]: 4.13 nM
- IC50 [2]: 4.13 nM
- IC50 [3]: < 0.949 nM
- IC50 [4]: < 0.949 nM
- IC50 [5]: < 0.949 nM
- IC50 [6]: < 0.949 nM
- viability, T/C (second compound 0.0316 µM, first compound 0.000949 µM): 102%
- viability, T/C (second compound 0.0316 µM, first compound 0.003 µM): 67.1%
- viability, T/C (second compound 0.0316 µM, first compound 0.00949 µM): 5.27%
- viability, T/C (second compound 0.0316 µM, first compound 0.03 µM): 0.67%
- viability, T/C (second compound 0.0316 µM, first compound 0.0949 µM): 0.27%
- viability, T/C (second compound 0.0316 µM, first compound 0.3 µM): 0.2%
- viability, T/C (second compound 0.1 µM, first compound 0.000949 µM): 70.2%
- viability, T/C (second compound 0.1 µM, first compound 0.003 µM): 67.7%
- viability, T/C (second compound 0.1 µM, first compound 0.00949 µM): 4.08%
- viability, T/C (second compound 0.1 µM, first compound 0.03 µM): 0.54%
- viability, T/C (second compound 0.1 µM, first compound 0.0949 µM): 0.24%
- viability, T/C (second compound 0.1 µM, first compound 0.3 µM): 0.21%
- viability, T/C (second compound 0.316 µM, first compound 0.000949 µM): 27.6%
- viability, T/C (second compound 0.316 µM, first compound 0.003 µM): 27.3%
- viability, T/C (second compound 0.316 µM, first compound 0.00949 µM): 2.6%
- viability, T/C (second compound 0.316 µM, first compound 0.03 µM): 0.27%
- viability, T/C (second compound 0.316 µM, first compound 0.0949 µM): 0.18%
- viability, T/C (second compound 0.316 µM, first compound 0.3 µM): 0.3%
- viability, T/C (second compound 1 µM, first compound 0.000949 µM): 5.63%
- viability, T/C (second compound 1 µM, first compound 0.003 µM): 1.53%
- viability, T/C (second compound 1 µM, first compound 0.00949 µM): 0.21%
- viability, T/C (second compound 1 µM, first compound 0.03 µM): 0.19%
- viability, T/C (second compound 1 µM, first compound 0.0949 µM): 0.2%
- viability, T/C (second compound 1 µM, first compound 0.3 µM): 1.89%
- viability, T/C (second compound 3.16 µM, first compound 0.000949 µM): 5.74%
- viability, T/C (second compound 3.16 µM, first compound 0.003 µM): 2.25%
- viability, T/C (second compound 3.16 µM, first compound 0.00949 µM): 1.98%
- viability, T/C (second compound 3.16 µM, first compound 0.03 µM): 0.31%
- viability, T/C (second compound 3.16 µM, first compound 0.0949 µM): 0.19%
- viability, T/C (second compound 3.16 µM, first compound 0.3 µM): 2.14%
- viability, T/C (second compound 10 µM, first compound 0.000949 µM): 4.58%
- viability, T/C (second compound 10 µM, first compound 0.003 µM): 2.17%
- viability, T/C (second compound 10 µM, first compound 0.00949 µM): 0.45%
- viability, T/C (second compound 10 µM, first compound 0.03 µM): 0.32%
- viability, T/C (second compound 10 µM, first compound 0.0949 µM): 5.38%
- viability, T/C (second compound 10 µM, first compound 0.3 µM): 2.98%

SMILES: CCCS(=O)(=O)Nc1ccc(F)c(C(=O)c2c[nH]c3ncc(-c4ccc(Cl)cc4)cc23)c1F + CN1CCN(c2cc(C(=O)Nc3cc4cc(-c5cnn(C)c5)ccc4cn3)ccn2)CC1
- IC50 [1]: > 10000 nM
- IC50 [2]: > 10000 nM
- IC50 [3]: < 31.6 nM
- IC50 [4]: < 31.6 nM
- IC50 [5]: < 31.6 nM
- IC50 [6]: < 31.6 nM
- viability, T/C [7]: 97.9%
- viability, T/C [8]: 102%
- viability, T/C [9]: 102%
- viability, T/C [10]: 111%
- viability, T/C [11]: 101%
- viability, T/C [12]: 78.7%
- viability, T/C [13]: 68.4%
- viability, T/C [14]: 68.1%
- viability, T/C [15]: 80.1%
- viability, T/C [16]: 83%
- viability, T/C [17]: 84.7%
- viability, T/C [18]: 66.5%
- viability, T/C [19]: 28.1%
- viability, T/C [20]: 26.3%
- viability, T/C [21]: 30.5%
- viability, T/C [22]: 34.7%
- viability, T/C [23]: 32.3%
- viability, T/C [24]: 35%
- viability, T/C [25]: 4.7%
- viability, T/C [26]: 3.95%
- viability, T/C [27]: 3.77%
- viability, T/C [28]: 4.38%
- viability, T/C [29]: 4.19%
- viability, T/C [30]: 6.54%
- viability, T/C [31]: 4.04%
- viability, T/C [32]: 4.11%
- viability, T/C [33]: 4.16%
- viability, T/C [34]: 4.42%
- viability, T/C [35]: 5.61%
- viability, T/C [36]: 6.54%
- viability, T/C [37]: 4.15%
- viability, T/C [38]: 4.79%
- viability, T/C [39]: 4.2%
- viability, T/C [40]: 4.29%
- viability, T/C [41]: 4.87%
- viability, T/C [42]: 5.79%

SMILES: COC1C=CCC(C)C(C)S(=O)(=O)NC(=O)c2ccc3c(c2)N(CC2CCC21)CC1(CCCc2cc(Cl)ccc21)CO3 (stereo not drawn) + CN1CCN(c2cc(C(=O)Nc3cc4cc(-c5cnn(C)c5)ccc4cn3)ccn2)CC1
- IC50 [1]: 841 nM
- IC50 [2]: 456 nM
- IC50 [3]: < 31.6 nM
- IC50 [4]: < 31.6 nM
- IC50 [5]: < 31.6 nM
- IC50 [6]: < 31.6 nM
- viability, T/C [7]: 97.8%
- viability, T/C [8]: 92.1%
- viability, T/C [9]: 62%
- viability, T/C [10]: 47.8%
- viability, T/C [11]: 30%
- viability, T/C [12]: 12.3%
- viability, T/C [13]: 72.5%
- viability, T/C [14]: 67%
- viability, T/C [15]: 53.5%
- viability, T/C [16]: 39.1%
- viability, T/C [17]: 28.9%
- viability, T/C [18]: 10.4%
- viability, T/C [19]: 27.5%
- viability, T/C [20]: 26.2%
- viability, T/C [21]: 21.1%
- viability, T/C [22]: 17.7%
- viability, T/C [23]: 15.1%
- viability, T/C [24]: 9.86%
- viability, T/C [25]: 3.35%
- viability, T/C [26]: 4.19%
- viability, T/C [27]: 4.18%
- viability, T/C [28]: 3.31%
- viability, T/C [29]: 1.96%
- viability, T/C [30]: 2.43%
- viability, T/C [31]: 3.51%
- viability, T/C [32]: 3.78%
- viability, T/C [33]: 3.33%
- viability, T/C [34]: 3.25%
- viability, T/C [35]: 2.59%
- viability, T/C [36]: 2.44%
- viability, T/C [37]: 5.25%
- viability, T/C [38]: 3.97%
- viability, T/C [39]: 3.84%
- viability, T/C [40]: 3.47%
- viability, T/C [41]: 2.83%
- viability, T/C [42]: 2.37%

SMILES: COC1C=CCC(C)C(C)S(=O)(=O)NC(=O)c2ccc3c(c2)N(CC2CCC21)CC1(CCCc2cc(Cl)ccc21)CO3 (stereo not drawn)
- viability, T/C (compound 0.0316 µM): 111% and 91.1%
- viability, T/C (compound 0.1 µM): 108% and 91.9%
- viability, T/C (compound 0.316 µM): 77.9% and 80.8%
- viability, T/C (compound 1 µM): 61.1% and 61.5%
- viability, T/C (compound 3.16 µM): 37.5% and 61%
- viability, T/C (compound 10 µM): 10.5% and 25.6%
- IC50 (curve of compound): 1640 nM and 3650 nM

From PubChem BioAssay AID2060619 (Molecular Pharmacology Branch, DTP, NCI, 2025)
